Assay results published in ChEMBL document CHEMBL1201862, “PubChem BioAssay data set” (2004).
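Test compounds were applied to cells in 96-well plates for 48 hours at 5 doses. Here, GI50 denotes the concentration required for 50% inhibition of growth.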 Active and inactive are the calls of the source. Cut-off read from the data, not from the text of the source: active = GI50 up to about 1.1 µM and inactive = higher.

How the values were obtained:
Test in all cases: NCI anticancer screen, dose series, 48 h
[1] = tested on: K562
[2] = tested on: SNB-19
[3] = tested on: 786-0
[4] = tested on: Malme-3M
[5] = tested on: SK-MEL-28
[6] = tested on: NCI-H460
[7] = tested on: BT-549
[8] = tested on: HCT-15
[9] = tested on: SF-295
[10] = tested on: HL-60
[11] = tested on: OVCAR-3
[12] = tested on: OVCAR-5
[13] = tested on: MDA-N
[14] = tested on: MDA-MB-435
[15] = tested on: HCT-116
[16] = tested on: HT-29
[17] = tested on: CCRF-CEM
[18] = tested on: IGROV-1
[19] = tested on: SNB-75

Row | SMILES | GI50 [1] | GI50 [2] | GI50 [3] | GI50 [4] | GI50 [5] | GI50 [6] | GI50 [7] | GI50 [8] | GI50 [9] | GI50 [10] | GI50 [11] | GI50 [12] | GI50 [13] | GI50 [14] | GI50 [15] | GI50 [16] | GI50 [17] | GI50 [18] | GI50 [19]
1 | COc1cc(C(=O)Nc2nnc(S(N)(=O)=O)s2)cc(OC)c1OC | > 100 µM (inactive) | > 100 µM (inactive) | > 100 µM (inactive) | > 100 µM (inactive) | > 100 µM (inactive) | > 100 µM (inactive) | > 100 µM (inactive) | > 100 µM | > 100 µM (inactive) | > 100 µM (inactive) | > 100 µM (inactive) | > 100 µM (inactive) | > 100 µM (inactive) | > 100 µM (inactive) | > 100 µM (inactive) | – | – | – | –
2 | N#Cc1ccc(Oc2nc3ccccc3nc2-c2ccccc2)cc1 | > 100 µM (inactive) | > 100 µM (inactive) | > 100 µM (inactive) | > 100 µM (inactive) | > 100 µM (inactive) | > 100 µM (inactive) | > 100 µM (inactive) | > 100 µM | > 100 µM (inactive) | > 100 µM (inactive) | > 100 µM (inactive) | > 100 µM (inactive) | > 100 µM (inactive) | > 100 µM (inactive) | > 100 µM (inactive) | > 100 µM (inactive) | > 100 µM (inactive) | > 100 µM (inactive) | –
3 | COC(=O)c1cc(NC(=O)Cn2c3ccccc3c3ccccc32)cn1C | 59.2 µM (inactive) | 39.4 µM (inactive) | 29.7 µM (inactive) | 30.2 µM (inactive) | > 100 µM (inactive) | 57.5 µM (inactive) | 24.9 µM (inactive) | 92.7 µM | 26.9 µM (inactive) | > 100 µM (inactive) | > 100 µM (inactive) | > 100 µM (inactive) | > 100 µM (inactive) | 78.5 µM (inactive) | 46.2 µM (inactive) | 49.9 µM (inactive) | 39.3 µM (inactive) | 24.3 µM (inactive) | –
4 | O=C1C2=Cc3ccccc3OC2(O)Oc2cc3ccccc3cc21 (stereo unspecified) | > 100 µM (inactive) | – | > 100 µM (inactive) | > 100 µM (inactive) | > 100 µM (inactive) | > 100 µM (inactive) | 15.1 µM (inactive) | > 100 µM | 94.8 µM (inactive) | – | 57.8 µM (inactive) | > 100 µM (inactive) | > 100 µM (inactive) | > 100 µM (inactive) | > 100 µM (inactive) | > 100 µM (inactive) | > 100 µM (inactive) | 28.7 µM (inactive) | 25.9 µM (inactive)
5 | CCOc1ccccc1/N=C\c1c2ccccc2cc2ccccc12 | 17.3 µM (inactive) | 26.4 µM (inactive) | 18.8 µM (inactive) | – | 26.2 µM (inactive) | 29.9 µM (inactive) | 28.2 µM (inactive) | 24.4 µM | 30 µM (inactive) | 16 µM (inactive) | 24.7 µM (inactive) | 25.8 µM (inactive) | 21.9 µM (inactive) | 22.7 µM (inactive) | 18.4 µM (inactive) | 21.6 µM (inactive) | 9.29 µM (inactive) | 22.8 µM (inactive) | 19.5 µM (inactive)
6 | CCOC(=O)C(=O)N/N=C1\C(=O)Nc2ccccc21 | > 100 µM (inactive) | > 100 µM (inactive) | > 100 µM (inactive) | > 100 µM (inactive) | > 100 µM (inactive) | > 100 µM (inactive) | > 100 µM (inactive) | > 100 µM | > 100 µM (inactive) | – | – | > 100 µM (inactive) | > 100 µM (inactive) | > 100 µM (inactive) | > 100 µM (inactive) | – | > 100 µM (inactive) | > 100 µM (inactive) | > 100 µM (inactive)
7 | CCC(C#N)NCc1ccc(CNC(C#N)CC)cc1 (stereo unspecified) | > 100 µM (inactive) | > 100 µM (inactive) | > 100 µM (inactive) | > 100 µM (inactive) | > 100 µM (inactive) | > 100 µM (inactive) | > 100 µM (inactive) | > 100 µM | > 100 µM (inactive) | > 100 µM (inactive) | > 100 µM (inactive) | > 100 µM (inactive) | > 100 µM (inactive) | > 100 µM (inactive) | > 100 µM (inactive) | > 100 µM (inactive) | > 100 µM (inactive) | > 100 µM (inactive) | –
8 | CCOC(=O)N1CCNCCN(C(=O)OCC)CCNCC1 | > 100 µM (inactive) | > 100 µM (inactive) | > 100 µM (inactive) | – | > 100 µM (inactive) | > 100 µM (inactive) | > 100 µM (inactive) | > 100 µM | > 100 µM (inactive) | > 100 µM (inactive) | > 100 µM (inactive) | > 100 µM (inactive) | > 100 µM (inactive) | > 100 µM (inactive) | > 100 µM (inactive) | > 100 µM (inactive) | > 100 µM (inactive) | > 100 µM (inactive) | –
9 | Nc1ccc(Oc2ccc(C3(c4ccc(Oc5ccc(N)c(O)c5)cc4)C4CC5C6CC7CC5C3C(C7)C6C4)cc2)cc1O | 2.19 µM (inactive) | 3.3 µM (inactive) | 1.73 µM (inactive) | 3.23 µM (inactive) | – | 2.41 µM (inactive) | 4.15 µM (inactive) | 2.4 µM | 2.77 µM (inactive) | 2.44 µM (inactive) | 1.52 µM (inactive) | 1.31 µM (inactive) | 1.36 µM (inactive) | 1.53 µM (inactive) | 1.71 µM (inactive) | 1.91 µM (inactive) | 16 µM (inactive) | 2.2 µM (inactive) | –
10 | CCOP(=O)(OCC)[C@H](O)c1ccsc1 | > 100 µM (inactive) | > 100 µM (inactive) | > 100 µM (inactive) | > 100 µM (inactive) | > 100 µM (inactive) | > 100 µM (inactive) | > 100 µM (inactive) | > 100 µM | > 100 µM (inactive) | – | – | > 100 µM (inactive) | > 100 µM (inactive) | > 100 µM (inactive) | > 100 µM (inactive) | > 100 µM (inactive) | > 100 µM (inactive) | > 100 µM (inactive) | > 100 µM (inactive)
11 | c1cc2cc(c1)CN1CCNCCN(CCNCC1)Cc1cccc(c1)CN1CCNCCN(CCNCC1)C2 | > 100 µM (inactive) | > 100 µM (inactive) | > 100 µM (inactive) | > 100 µM (inactive) | > 100 µM (inactive) | > 100 µM (inactive) | > 100 µM (inactive) | > 100 µM | > 100 µM (inactive) | – | > 100 µM (inactive) | > 100 µM (inactive) | > 100 µM (inactive) | > 100 µM (inactive) | > 100 µM (inactive) | > 100 µM (inactive) | – | > 100 µM (inactive) | > 100 µM (inactive)
12 | C/C(=N\O)c1cccc(Nc2c3ccccc3nc3occc23)c1 | 3.58 µM (inactive) | 17.1 µM (inactive) | 13.4 µM (inactive) | 2.86 µM (inactive) | 4.02 µM (inactive) | 5.15 µM (inactive) | 3.29 µM (inactive) | 3.38 µM | 4.24 µM (inactive) | 4.74 µM (inactive) | 4.73 µM (inactive) | 48 µM (inactive) | 3.05 µM (inactive) | 2.24 µM (inactive) | 3.52 µM (inactive) | 9.1 µM (inactive) | 3.4 µM (inactive) | 2.77 µM (inactive) | –
13 | Cn1c2ccccc2c(=O)c2c(O)cc3c(c21)C=CC1(CCCCC1)O3 | 4.5 µM (inactive) | > 10 µM (inactive) | 9.95 µM (inactive) | > 10 µM (inactive) | > 10 µM (inactive) | > 10 µM (inactive) | 2.08 µM (inactive) | > 10 µM | > 10 µM (inactive) | – | > 10 µM (inactive) | 7.18 µM (inactive) | > 10 µM (inactive) | > 10 µM (inactive) | > 10 µM (inactive) | 3.85 µM (inactive) | > 10 µM (inactive) | > 10 µM (inactive) | > 10 µM (inactive)
14 | Clc1cc2nnn(C3CCCCO3)c2cc1Cl (stereo unspecified) | > 100 µM (inactive) | > 100 µM (inactive) | > 100 µM (inactive) | > 100 µM (inactive) | – | 88.9 µM (inactive) | 41.5 µM (inactive) | 96.6 µM | > 100 µM (inactive) | – | 69.3 µM (inactive) | > 100 µM (inactive) | > 100 µM (inactive) | > 100 µM (inactive) | 79.8 µM (inactive) | 63.1 µM (inactive) | > 100 µM (inactive) | > 100 µM (inactive) | 34.4 µM (inactive)
15 | COc1cc([N+](=O)[O-])c(S(=O)(=O)O)cc1NS(=O)(=O)c1ccc(C)cc1 | > 100 µM (inactive) | > 100 µM (inactive) | > 100 µM (inactive) | – | > 100 µM (inactive) | > 100 µM (inactive) | > 100 µM (inactive) | > 100 µM | > 100 µM (inactive) | > 100 µM (inactive) | > 100 µM (inactive) | > 100 µM (inactive) | > 100 µM (inactive) | > 100 µM (inactive) | > 100 µM (inactive) | > 100 µM (inactive) | > 100 µM (inactive) | > 100 µM (inactive) | > 100 µM (inactive)
16 | Oc1[nH]c(NCc2ccc(Cl)cc2)nc2ncnc1-2 | > 100 µM (inactive) | > 100 µM (inactive) | > 100 µM (inactive) | > 100 µM (inactive) | – | > 100 µM (inactive) | > 100 µM (inactive) | > 100 µM | > 100 µM (inactive) | – | > 100 µM (inactive) | > 100 µM (inactive) | > 100 µM (inactive) | > 100 µM (inactive) | > 100 µM (inactive) | > 100 µM (inactive) | > 100 µM (inactive) | > 100 µM (inactive) | > 100 µM (inactive)
